The text below walks through data of patent US9943687B2, “Method of treating parkinson's disease and other movement disorders” (Duke University, priority 2007, dated 2018).

The structures appear in SMILES notation. Values joined by “and” are separate entries in the source; they are usually repeats but may differ in a detail not shown here. Identical values can stand only once.

The test system of test [1] is DAT-KO mice. Description: Minimum L-DOPA dose (alone or with DCS) required to restore locomotion. Format: in vivo. The following applies: AMPT-treated DAT-KO mice. The protocol: (§1) Rats were placed in a circular open-field (90 cm diameter) for 70 min (10 min adaptation and 1 h behavioural recording). The animals were then allowed to rest in its home cage for one hour. After that, the animals were reintroduced into the open-field and dorsal column stimulation (DCS) was applied every 10 minutes for 30 seconds. In mice, locomotion was documented both by video recordings and through an automated tracking system based in infra-red beams (Med Associates Inc., VT). Recordings were obtained before and after dopamine-depletion, and DCS was applied as described below.
(§2) The movements of the rats in the open-field were extracted from the digitized video recordings, with approximately 1 mm spatial resolution, with custom designed algorithms implemented in command interpreting software (The MathWorks Inc., MA). For mice, scored locomotion from the infra-red tracking system was binned into 500 ms bins (original resolution 50 ms). For locomotion extraction from video data, single frames with a 500 ms interval were used.
In order to find the minimum dose of L-DOPA (alone or combined with DCS) required to restore locomotion, a severely dopamine-depleted akinetic animal model was used, namely mice lacking the gene for the presynaptic dopamine membrane transporter (DAT-KO). […]

Test [2] has as its system DAT-KO mice. Briefly: LFP spectral index in severely dopamine depleted animals. It counts as in vivo. The note with it: last hours of testing period, coinciding with onset of locomotion. The protocol: FIG. 20. Local field potentials are shifted to higher frequencies as a result of DCS even in severely dopamine depleted animals. Average spectral indices (power ratio: [25-55]/[1.5-25] Hz) calculated for DCS+L-DOPA (black) and L-DOPA (grey) treated animals, respectively. DCS induced spectral changes even at the lowest L-DOPA dose tested (a single 1 mg/kg injection) while the spectral change in the L-DOPA only group occurred during the last hours of the testing period (after more than 20 mg/kg L-DOPA in total) coinciding with onset of locomotion.
Struck by the dramatic functional recovery on the behavioral level, the electrophysiological changes associated with motor improvements were analyzed next. […] The spectral shift was maintained throughout the stimulation period and lasted for ˜50 s following the off-set of stimulation. This indicates a prolonged shift in the activity state of these brain structures, also ruling out any major effects of contamination in the spectrograms from stimulation currents (FIG. 16C). To condense the spectral shift into a single measure, a spectral index was computed by dividing the spectral range analyzed into an upper and lower half and calculating the ratio of the summed power of the frequencies in the two intervals [(25-55 Hz)/(1.5-25 Hz)]. […]

For a further test, the system named is corticostriatal circuit. Description: Corticostriatal LFP oscillations / dopamine spectral index after AMPT injection. The following applies: after AMPT injection 250 mg/kg i.p. Format: in vivo, C57/J (wild type) male mice. The protocol:
Two C57/J (wild type) male mice where implanted with peripheral nerve cuff electrodes, microwire electrodes arrays in the striatum and motor cortex and one EMG wire in the trapezium muscle. After a week of recovery, a series of experiments were carried out. Individual animals were introduced to the open field activity (OFA) monitor cage, which permitted tracking of the animal's locomotive activity. After 10 minutes, the animal was injected with AMPT (250 mg/kg, i.p.) to produce a partial depletion in dopamine brain levels. The stimulation started 15 minutes after the injection. It was delivered in 2-minute windows, alternated with 2 minutes of rest (no stimulation). The amplitude was fixed at 0.4 mA. This value was selected on the basis that it produced a noticeable effect on the animal (soft scratching of the whiskers pads) at the onset of stimulation but no further signs of discomfort or pain. Sixteen different frequency values delivered in a pseudorandom way (1-130 Hz) were tested.
The key observation in these experiments was that IS at some frequencies could revert this strong neural oscillation pattern to the type of desynchronized firing activity observed during the control period. […] In order to quantify this observation, the ratio between the LFP power in the 2-4 Hz and 0-4 Hz range was used as an indicator of the predominant oscillatory pattern (FIG. 6). […]

Test [3] concerns striatal dopamine concentrations. The note with it: cited from earlier work.
Test [4] relates to wild-type mice. Description: Catalepsy test (forepaws on bar 3 cm above the ground). The note with it: after the 6 h depletion period. It counts as in vivo, wild-type C57/BL6J mice. The protocol:
The first set of experiments was carried out using an inducible mouse model of PD, first in wild-type animals and then in dopamine-transporter knock-out (DAT-KO) mice (Sotnikova et al, PLoS Biol. 3:e271 (2005)). Through pharmacological inhibition of dopamine synthesis, acute dopamine depletion was induced in both types of animals in order to reliably document the effects of DCS during a severe parkinsonian-like state of akinesia. In agreement with previous experiments, the characteristic behavioral and electrophysiological changes following inhibition of dopamine synthesis was confirmed in these animals (Carlsson, Acta Neurol. Scand. Suppl 51:11 (1972), Costa et al, Neuron. 52:359 (2006), Sotnikova et al, PLoS Biol. 3:e271 (2005)). In patients, the cardinal symptoms of idiopathic PD, rigidity, resting tremor and brady-/hypokinesia, have been reported to be clinically apparent following degeneration of 60-70% of the dopaminergic neurons of the substantia nigra pars compacta, which in turn results in a […] reduction of striatal dopamine levels (Brooks et al, Biol. Psychiatry 59:908 (2006), Lloyd et al, J. Pharmacol. Exp. Ther. 195:453 (1975)). […]

For test [5], the system named is striatal levels of dopamine. Description: Tissue content analysis of striatal dopamine and metabolites (HPLC-EC) after AMPT. It counts as in vivo, wild-type C57/BL6J mice. The protocol:
FIGS. 11A-11C. Tissue content analysis confirms that acute pharmacological dopamine depletion in wild-type mice leads to striatal dopamine levels similar to those observed in PD patients. […] Average quantities in depleted animals were reduced for dopamine, DOPAC and HVA to: 4.5 ng, 0.17 ng and 0.41 ng per mg tissue, respectively, compared to 14.4 ng, 0.74 ng and 1.36 ng per mg tissue, for saline injected control animals (**=p<0.005, Mann-Whitney test, n=6 in each group). Tissue content analysis of dopamine and metabolites.
Striatal tissue content of dopamine was assessed using high performance liquid chromatography with electrochemical detection, as previously described. Striata were rapidly dissected, frozen, and stored at −80° C. Later, tissue samples were homogenized in 0.1M HClO4 containing 100 ng/ml 3,4-dihydroxybenzylamine (DHBA) as an internal standard. Homogenates were centrifuged for 10 min at 10,000×g. Supernatants were filtered through 0.22 μm filter and analyzed for levels of dopamine using HPLC-EC. Monoamines and metabolites were separated on a microbore reverse-phase column (C-18, 5 μm, 1×150 mm, Unijet, BAS). The volume of injection was 5 μl.
(§3) The first set of experiments was carried out using an inducible mouse model of PD, first in wild-type animals and then in dopamine-transporter knock-out (DAT-KO) mice (Sotnikova et al, PLoS Biol. 3:e271 (2005)). Through pharmacological inhibition of dopamine synthesis, acute dopamine depletion was induced in both types of animals in order to reliably document the effects of DCS during a severe parkinsonian-like state of akinesia. In agreement with previous experiments, the characteristic behavioral and electrophysiological changes following inhibition of dopamine synthesis was confirmed in these animals (Carlsson, Acta Neurol. Scand. Suppl 51:11 (1972), Costa et al, Neuron. 52:359 (2006), Sotnikova et al, PLoS Biol. 3:e271 (2005)). In patients, the cardinal symptoms of idiopathic PD, rigidity, resting tremor and brady-/hypokinesia, have been reported to be clinically apparent following degeneration of 60-70% of the dopaminergic neurons of the substantia nigra pars compacta, which in turn results in a […] reduction of striatal dopamine levels (Brooks et al, Biol. Psychiatry 59:908 (2006), Lloyd et al, J. Pharmacol. Exp. Ther. 195:453 (1975)). […] Secondly, a pronounced muscle tremor was evident during resting periods, which was reflected in characteristic oscillatory patterns in electromyographic (EMG) recordings obtained from chronically implanted microwires in the nuchal muscles (FIG. 12). This tremor was suppressed during locomotion bouts. […] (FIG. 13A, see also Drouot et al, Neuron 44:769 (2004) and Sakai et al, Brain Res. 633:144 (1994)).

The subject of test [6] is wild-type mice. Briefly: Open-field locomotion after acute pharmacological dopamine depletion. It counts as in vivo, wild-type C57/BL6J mice. The protocol:
as §1, §2
The number of bins used for histograms of locomotion speeds was adjusted according to the maximum speed scored in a single bin in the slowest condition (i.e. 500 mm/s for the rats and 180 mm/s for the mice). The relatively few (<0.3%) events with locomotion components faster than the upper limit found in the other conditions were assigned to the fastest bin. The number of events within each speed interval was summed and the relative change in response to DCS was calculated. A lower threshold just above the quantal step was used in the analysis of histogram distributions, i.e. 10 mm/500 ms for both mouse and rat data.
as §3

In the next test the test system is tyrosine hydroxylase. Briefly: Tyrosine hydroxylase staining and quantification in striatum of 6-OHDA lesioned rats. The note with it: 6-OHDA three sites each side, 7 μg per site. It counts as in vivo, Long-Evans rats. The protocol: Rats received a total of […] 6-OHDA, injected in 3 locations of the striatum on each side. The injections contained a saline solution with 3.5 mg/ml 6-OHDA and 0.05% ascorbate. Anteroposterior, mediolateral and dorsoventral coordinates for the injections were: +1.0, +/−3.0, −5.0; −0.1, +/−3.7, −5.0 and −1.2, +/−4.5 and −5.0 (Winkler et al, Neurobiol. Dis. 10:165 (2002)).
The extent and position of striatal lesions was confirmed by TH immunohistochemistry. For quantification of TH-staining, digital photos of the individual sections were taken with a 16× microscope (Stemi 2000-c, Zeiss) under identical illumination conditions. The range in brightness was practically identical for every photo ranging from no light (inside the microscope) at the outer edge to the brightest non-stained part of each section. Images were converted to grey-scale bitmap format with an 8-bit dynamic range in brightness.

Setting [7] is: two i.p. injections of 250 mg/kg, 2 hours apart, measured 4 hours after last injection, n=6.

Turning to `N[C@@H](Cc1ccc(O)c(O)c1)C(=O)O` [L-DOPA], the “L-DOPA injection dose at which locomotion first occurred” value in the test with DAT-KO mice [1] (L-DOPA injections every hour with increasing dose) came out at 5 mg/kg. The “total L-DOPA dose when locomotion first occurred” value in the test on DAT-KO mice [1] (cumulative dose of hourly injections) is reported as 15 mg. The “total L-DOPA dose at which spectral change occurred” value in the test with DAT-KO mice [2] is listed as “more than 20 mg/kg”.
For `CC(N)(Cc1ccc(O)cc1)C(=O)O` (stereo not drawn) [AMPT, α-methyl-p-tyrosine], the “frequency of strong LFP synchronization after dopamine depletion” value in the test on corticostriatal circuit came to 4 Hz. The “dopamine spectral index (LFP power 2-4 Hz / 0-4 Hz)” value with corticostriatal circuit (basal value around 0.5) is approximately 1. Moreover, the “dopamine levels after AMPT in DAT-KO mice” value in test [3] (250 mg/kg i.p.) was “virtually undetectable levels”. Besides, in test [3] (DAT-KO mice treated with AMPT), the “duration of severe akinesia, rigidity and tremors” value is “up to 16 hours”; the “striatal dopamine concentration relative to control animals” value was 0.2%. The “catalepsy: time unable to remove the forepaws from bar” value in the test with wild-type mice [4] is listed as “at least 30 s”. In addition, the “reduction of striatal dopamine levels” value in test [5] (two i.p. injections (250 mg/kg) during a 6 h period) worked out at 69%. Besides, in test [5] (setting [7]), the “striatal DOPAC tissue content in depleted animals” value is recorded as 0.17 ng per mg tissue and the “striatal HVA tissue content in depleted animals” value is recorded as 0.41 ng per mg tissue. Moreover, the “striatal dopamine tissue content in depleted animals” value in test [5] (two i.p. injections of 250 mg/kg, 2 hours apart, measured 4 hours after last injection, n=6, 250 mg/kg) was 4.5±2.0 ng per mg tissue and 4.5 ng per mg tissue. Besides, in the test on wild-type mice [6] (depleted animals during testing periods), the “average amount of locomotion as percentage of control values” is reported as approximately 10%. In addition, the “average locomotion score in open-field (mean±SEM)” value with wild-type mice [6] (depleted animals, n=14) was 0.4±0.02 mm/s. Also, in the test with wild-type mice [6] (fast speed interval), the “locomotion score, fast movements, as percentage of non-depleted animals” value is listed as 0.3%. Moreover, the “locomotion score, medium movements, as percentage of non-depleted animals” value in the test with wild-type mice [6] (medium speed interval) is 2.0%. Also, the “locomotion score, slow movements, as percentage of non-depleted animals” value in the test on wild-type mice [6] (slow speed interval) is listed as 10.5%.
`NCCc1cc(O)c(O)cc1O` [6-OHDA]: in the test on tyrosine hydroxylase, the “tyrosine hydroxylase staining relative to sham treated controls” value was ~20% and 21%.
